In the series the test system is rodent carcinogenicity bioassays, tumor incidence. Put plainly: CCRIS carcinogenicity studies. Put shortly: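 Archive of carcinogenicity, mutagenicity, tumor promotion and tumor inhibition results drawn from journals, NCI reports and other sources, expert-reviewed; covers 1985-2011 and is no longer updated.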

Activity calls are given as the source filed them. The rule behind the calls is not given here.

Take `O=[N+]([O-])c1ccc2c3c(cccc13)CC2`: the carcinogen call was “active; positive” (Species: MOUSE, Strain/Sex: B6C3F1/FEMALE, Route: ORAL, Dose: 0, 0.05, 0.12% TWA, IN DIET FOR 78 WK (STUDY DURATION: 96 WK), Dose: 0, 0.05, 0.12% TWA, IN DIET FOR 78 WK (STUDY DURATION: 96 WK), Tumor Site: Type of Lesion: LIVER: HEPATOCELLULAR CARCINOMA, OVARIES: GRANULOSA CELL TUMOR, LUTEOMA OR TUBULAR CELL ADENOMA); “inactive; negative” (Species: MOUSE, Strain/Sex: B6C3F1/MALE, Route: ORAL, Dose: 0, 0.06, 0.12% TWA, IN DIET FOR 78 WK (STUDY DURATION: 96 WK), Dose: 0, 0.06, 0.12% TWA, IN DIET FOR 78 WK (STUDY DURATION: 96 WK)); “active; positive” (Species: RAT, Strain/Sex: F344/FEMALE, Route: ORAL, Dose: 0, 0.12, 0.24% IN DIET FOR 78 WK (STUDY DURATION: 87-100 WK), Dose: 0, 0.12, 0.24% IN DIET FOR 78 WK (STUDY DURATION: 87-100 WK), Tumor Site: Type of Lesion: LUNG: ALVEOLAR/BRONCHIOLAR ADENOMA OR ALVEOLAR/BRONCHIOLAR CARCINOMA, MAMMARY GLAND: ADENOCARCINOMA OR PAPILLARY CYSTADE); “active; positive” (Species: RAT, Strain/Sex: F344/MALE, Route: ORAL, Dose: 0, 0.12, 0.24% IN DIET FOR 70-78 WK (STUDY DURATION: 70-100 WK), Dose: 0, 0.12, 0.24% IN DIET FOR 70-78 WK (STUDY DURATION: 70-100 WK), Tumor Site: Type of Lesion: LUNG: ALVEOLAR/BRONCHIOLAR ADENOMA OR ALVEOLAR/BRONCHIOLAR CARCINOMA, EAR (EAR CANAL OR SKIN OF EAR): SQUAMOUS CELL CARC).
As to `NCCNc1cccc2ccccc12`, the carcinogen call was “inactive; negative” (Species: MOUSE, Strain/Sex: B6C3F1/FEMALE, Route: ORAL, Dose: 0, 0.2, 0.3% OF DIET, TWA FOR HIGH DOSE, Dose: 0, 0.2, 0.3% OF DIET, TWA FOR HIGH DOSE); “inactive; negative” (Species: MOUSE, Strain/Sex: B6C3F1/MALE, Route: ORAL, Dose: 0, 0.05, 0.1% OF DIET, Dose: 0, 0.05, 0.1% OF DIET); “inactive; negative” (Species: RAT, Strain/Sex: F344/FEMALE, Route: ORAL, Dose: 0, 0.05, 0.1% OF DIET, Dose: 0, 0.05, 0.1% OF DIET); “inactive; negative” (Species: RAT, Strain/Sex: F344/MALE, Route: ORAL, Dose: 0, 0.05, 0.1% OF DIET, Dose: 0, 0.05, 0.1% OF DIET).
Regarding `CCC(C)(CC)c1cc(NC(=O)c2c(OC)cccc2OC)on1`, the carcinogen call runs as follows: (Species: Mouse, Strain/Sex: B6C3F1/Male (60/Group), Route: Oral, Dose: 0, 100, 1000, 12,500 ppm of 85% isoxaben (plus 10.5% closely related isomers) in diet for 2 yr, study duration 2 yr, Dose: 0, 100, 1000, 12,500 ppm of 85% isoxaben (plus 10.5% closely related isomers) in diet for 2 yr, study duration 2 yr, Tumor Site: Type of Lesion: Liver: Hepatocellular adenomas (increased incidence and multiplicity at 12,500 ppm)) “active; positive”; (Species: Rat, Strain/Sex: Fischer 344/Female (60/Group), Route: Oral, Dose: 0, 125, 1250, 12,500 ppm of 85% isoxaben (plus 10.5% closely related isomers) in diet for 2 yr, study duration 2 yr, Dose: 0, 125, 1250, 12,500 ppm of 85% isoxaben (plus 10.5% closely related isomers) in diet for 2 yr, study duration 2 yr) “inactive; negative”; (Species: Rat, Strain/Sex: Fischer 344/Male (60/Group), Route: Oral, Dose: 0, 125, 1250, 12,500 ppm of 85% isoxaben (plus 10.5% closely related isomers) in diet for 2 yr, study duration 2 yr, Dose: 0, 125, 1250, 12,500 ppm of 85% isoxaben (plus 10.5% closely related isomers) in diet for 2 yr, study duration 2 yr, Tumor Site: Type of Lesion: Adrenal gland: pheochromocytoma (highest dose)) “active; positive”.
For the compound `O=[N+]([O-])c1ccc2c3ccccc3c3cccc4ccc1c2c43`, the carcinogen call (Species: MOUSE, Strain/Sex: B6C3F1/MALE, Route: INTRAPERITONEAL, Dose: 0, 400 NMOL IN 35 µL DMSO ON DAYS 1 (1/7 TOTAL DOSE), 8 (2/7 TOTAL DOSE), AND 15 (4/7 TOTAL DOSE) AFTER BIRTH (STUDY DUR) was “inactive; negative”.
Turning to `CCNC(=O)N(CCO)N=O`, the carcinogen call by setting is: (Species: RAT, Strain/Sex: F344/FEMALE, Route: INTRAVESICULAR, Dose: 0, 3.6 MG 2/WK FOR 30 WK (STUDY DURATION: LIFETIME), Tumor Site: Type of Lesion: BLADDER: TUMOR, UTERUS: TUMOR) “active; positive”; (Species: RAT, Strain/Sex: F344/FEMALE, Route: ORAL, Dose: 0, 37, 74 MG/L IN DRINKING WATER 5 D/WK FOR 30 WK (STUDY DURATION: LIFETIME), Dose: 0, 37, 74 MG/L IN DRINKING WATER 5 D/WK FOR 30 WK (STUDY DURATION: LIFETIME), Tumor Site: Type of Lesion: MAMMARY GLAND: CARCINOMA) “active; positive”; (Species: RAT, Strain/Sex: F344/MALE, Route: GAVAGE, Dose: 0, 3.6 MG IN 0.2 ML ETHYL ACETATE/CORN OIL (1:1) 2/WK FOR 31 WK (TOTAL DOSE: 223 MG) (STUDY DURATION: 80 WK), Tumor Site: Type of Lesion: LIVER: CARCINOMA, LUNG: CARCINOMA OR ADENOMA, BRAIN: TUMORS, THYROID: CARCINOMA OR ADENOMA, PERITONEUM: MESOTHELIOMA, Tumor Site: Type of Lesion: LIVER: CARCINOMA, LUNG: CARCINOMA OR ADENOMA, BRAIN: TUMORS, THYROID: CARCINOMA OR ADENOMA, PERITONEUM: MESOTHELIOMA) “active; positive”; (Species: RAT, Strain/Sex: F344/MALE, Route: ORAL, Dose: 0, 37, 74 MG/L IN DRINKING WATER 5 D/WK FOR 30 WK (STUDY DURATION: LIFETIME), Dose: 0, 37, 74 MG/L IN DRINKING WATER 5 D/WK FOR 30 WK (STUDY DURATION: LIFETIME), Tumor Site: Type of Lesion: LIVER: TUMOR, LUNG: TUMOR, THYROID: FOLLICULAR TUMOR, MESOTHELIUM: TUMOR, NERVOUS SYSTEM: TUMOR, SKIN: TUMOR, Tumor Site: Type of Lesion: LIVER: TUMOR, LUNG: TUMOR, THYROID: FOLLICULAR TUMOR, MESOTHELIUM: TUMOR, NERVOUS SYSTEM: TUMOR, SKIN: TUMOR) “active; positive”.
For `O[C@@H]1C=Cc2c(ccc3cc4ccccc4nc23)[C@H]1O`, the carcinogen call (Species: MOUSE, Strain/Sex: SWISS/FEMALE, Route: INTRAPERITONEAL, Dose: 0, 1.05 UMOL GIVEN AS 150 NMOL IN 5 µL DMSO WITHIN 24 HR OF BIRTH, 300 NMOL IN 10 µL DMSO ON D 8 OF LIFE, AND 600 NMOL I, Tumor Site: Type of Lesion: LUNG: ADENOMA) is “active; positive” and the carcinogen call (Species: MOUSE, Strain/Sex: SWISS/MALE, Route: INTRAPERITONEAL, Dose: 0, 1.05 UMOL GIVEN AS 150 NMOL IN 5 µL DMSO WITHIN 24 HR OF BIRTH, 300 NMOL IN 10 µL DMSO ON D 8 OF LIFE, AND 600 NMOL I, Tumor Site: Type of Lesion: LUNG: ADENOMA, LIVER: NEOPLASTIC NODULE) is “active; positive”.
In the case of `CC1COCCN1N=O` (centres undefined), the carcinogen call (Species: RAT, Strain/Sex: F344/FEMALE, Route: ORAL, Dose: 45 MG/L IN DRINKING WATER FOR 26 WK, Tumor Site: Type of Lesion: LIVER: HEPATOCELLULAR CARCINOMA, HEMANGIOENDOTHELIAL SARCOMA, ESOPHAGUS: PAPILLOMA, CARCINOMA) is “active; positive”.

For the origin of these results see PubChem BioAssay AID1259411 (Chemical Carcinogenesis Research Information System (CCRIS), 2018).
